# Experimental data reported in patent publication EP0511759A1, “Biotoxicity test for chemicals” (THE STANDARD OIL COMPANY, priority 1991, dated 1992).
# Test system: Anthophysa vegetans protozoa
# Assay: Protozoan feeding-behaviour bioassay: turbidity (absorbance at 540 nm) of live bacterial feed remaining
# Assay type: cell-based
# Protocol: The first step of the inventive process comprises adding protozoa and feed into test and control samples which contain inorganic buffers. The chemical substance whose toxic activity is being investigated is then added to the test samples but not to the control samples. The order of adding protozoa, feed and chemical substance is not critical. The amount of protozoa added is usually about at or below 1 x 10⁶ per ml. If dead bacteria are used as feed, they are added at sufficient concentrations to increase the turbidity of the medium to at least 0.3 at 540 nm in a 1.0 cm pathlength tube; this corresponds to concentration of about 2.5 x 10⁹ bacteria per ml. If live bacteria are added as feed, the inoculum level is about 0.01 to about 1% of a fully grown bacterial culture in the range of about 1 x 10⁶ to about 1 x 10⁸ bacteria per ml. […] A sample containing live bacteria is supplemented with a carbon source to support bacterial growth. The carbon sources are generally used at a final concentration of about 0.05%.
# This reduction in turbidity generally takes about 1 to about 5 days. If the feed employs live bacteria, there is an initial increase in the turbidity. This increase is then followed by a decrease in turbidity in the control tubes as stated above. If the test chemical is not toxic to the protozoa, the turbidity decreases in the sample tube. If the test chemical is toxic to the protozoa, the turbidity will remain essentially unchanged. The size and volume of the resulting mixture are not critical, provided there is sufficient volume to permit either visual or spectrophotometrical observations of the change in turbidity of the microbial cultures. Typically, about 3 ml to about 5 ml samples were used.
# Protozoa, Anthophysa vegetans at about 1 x 10⁵ per ml and a mixed bacteria population of soil bacteria containing but not limited to Alcaligenis and Psuedomonas at about 1 x 10⁶ per ml were inoculated into a growth medium as described above in "Culturing and Test Procedures". The bacteria multiplied in numbers and caused an initial increase in the turbidity (absorbance) of the growth medium, generally from about 0.03 to about 0.4, as measured at 540 nm in a 1.0 cm pathlength tube. After about one day of incubation, the bacterial growth ceased due to the limitation of carbon source. […] The protozoa preyed on the bacteria, leading to a reduction in bacterial cell concentration, indicated by a reduction of turbidity. This growth sequence is illustrated in Line A of Figure 2. If the bacterial cultures were grown without added protozoa, a similar increase in turbidity took place. However, there was no significant reduction in turbidity after the growth phase was completed. This is illustrated in Line B of Figure 2.
# Anthophysa vegetans protozoa and live mixed population of soil bacteria containing but not limited to Psuedomonas and Alcaligenis were inoculated into a growth medium as described under "Culturing and Test Procedures". The test chemical, a phenol ethoxylate surfactant, Igepal CO 850 (GAF Chemicals Corp.), was added at different concentrations. A control without added surfactant was maintained. […] However, at about 0 and about 10 ppm surfactant, the absorbance decreased on further incubation. […] The tolerance level of the protozoa, (i.e., the concentration level at which feeding inhibition is first observed) is about 100 ppm Igepal CO 850. […] The protozoa preyed on the bacteria, resulting in reduced absorbance at 540 nm after two days incubation. […]
smiles,measurement,setting,value
O=[N+]([O-])c1ccc(O)cc1 [4-nitrophenol],LC₅₀,Protozoa Inocula Level 0.0001X,0.46 ppm
same,LC₅₀,Protozoa Inocula Level 0.001X,5.6 ppm
same,LC₅₀,Protozoa Inocula Level 0.01X,12.5 ppm
same,LC₅₀,Protozoa Inocula Level 0.1X,19.5 ppm
same,LC₅₀,Protozoa Inocula Level 1.0X,36 ppm
